The numbers were not newly measured in patent US20040067947A1, “Method of preventing or treating atherosclerosis or restenosis” (priority 2002, published 2004), which cites them from elsewhere.

The data set has as its system CMV infection of rats. Particulars: rats infected with CMV; DHPG prophylaxis; Lemstrom et al., Circulation 1994, 90:1969-1978.

For `Nc1nc(O)c2ncn(COC(CO)CO)c2n1` [Ganciclovir], the “prevention of atherosclerosis resulting from CMV infection” value is “prevent atherosclerosis”.
